According to patent publication US20260166061A1, “COMPOUND, RACEMATE OF SAID COMPOUND, SALT OF SAID COMPOUND OR SAID RACEMATE, COMPOSITION, ANTI-INFLAMMATORY AGENT, THERAPEUTIC AGENT FOR DEMENTIA, AND THERAPEUTIC AGENT FOR RETT SYNDROME” (INSTITUTE OF RHEOLOGICAL FUNCTION OF FOOD CO., LTD., priority 2021, published 2026):

Columns and labels:
MeCP2-deficient mice [1] = assay: RTT-like scoring using RTT model mice; assay type: in vivo; settings: male MeCP2-deficient mice, 20 ng/g body weight, drinking water, scored weekly from 5 weeks old, FIG. 5
Description: (§1) RTT-like symptoms in MeCP2-deficient mice to which KIT-13 was administered were evaluated by RTT-like scoring. For the test, 4-week-old male MeCP2-deficient mice were used. The MeCP2-deficient mice were divided into the following two groups: a KIT-13 administration group (KO-KIT-13, n=14) and a control group (KO, n=15). In the KIT-13 administration group, KIT-13 was administered at 20 ng/g body weight by drinking-water administration in the same manner as in Test Example 3. In the control group, only water was given in the same manner.
The RTT-like scoring was carried out once a week from 5 weeks old, for the following items 1 to 6.
Each mouse was observed after gently placing the mouse on a platform. • 0 points: Same as the wild type. • 1 point: Lower mobility compared to the wild type. (The period of freezing after the first placement on the platform is longer, or the period during which the mouse is standing still is longer.) • 2 points: No spontaneous movement after the placement on the platform. The mouse can move in response to mild stimuli or food placed nearby.
• 0 points: Same as the wild type. • 1 point: Due to a severe reduction in the pelvis, the mouse spreads the hindlimbs apart during walking or running, compared to the wild type. Waddling gait.
Staggering gait. • 2 points: More remarkable abnormality. […]

[2] = Evaluation of body weight of MeCP2-deficient mice; assay type: in vivo; settings: male MeCP2-deficient mice, 20 ng/g body weight, drinking water
Description: as §1, with “MeCP2-deficient” for “RTT-like symptoms in MeCP2-deficient”, “subjected to measurement of the body weight every week, and changes in the body weight were evaluated.” for “evaluated by RTT-like scoring.”, “n=21).” for “n=15).”

MeCP2-deficient mice [3] = assay: Evaluation of lifetime using RTT model mice; assay type: in vivo; settings: male MeCP2-deficient mice, 20 ng/g body weight, drinking water twice a week
Description: For the test, 4-week-old male MeCP2-deficient mice were used. The MeCP2-deficient mice were divided into the following two groups: a KIT-13 administration group (KO-KIT-13, n=14) and a control group (KO, n=28). The body weight of each mouse was measured in advance. For the KIT-13 administration group, KIT-13 was suspended in water by ultrasonication, and administered twice a week by drinking-water administration such that 20 ng/g body weight of KIT-13 was taken. On the other hand, in the control group, only water was given in the same manner.

p65 (NFkB) in BV2 cells = assay: LPS-induced nuclear p65 expression in BV2 cells (Western blotting); assay type: cell-based, mice; settings: 5 μg/mL, 16 hours pre-culture, LPS (1 g/mL) 6 hours, 20 μg nuclear protein, n=2, FIG. 1
Description: (§2) Under conditions where KIT-2 or KIT-13 was present (5 μg/mL), or where neither KIT-2 nor KIT-13 was present, BV2 cells, which are microglial cells in mice, were cultured for 16 hours in DMEM medium supplemented with 2% fetal bovine serum (FBS). Thereafter, treatment with LPS ([…]) was carried out for 6 hours. Subsequently, nuclear protein was extracted from the cells, and p65 was detected by the Western blotting method. The antibody used for the detection was an anti-p65 NFkB antibody (Ref no. 51-0500, manufactured by Invitrogen).

IL-1β in BV2 cells = assay: LPS-induced IL-1β protein in BV2 cell culture supernatant (ELISA); assay type: cell-based, mice; settings: 5 μg/mL, 16 hours pre-culture, LPS (1 g/mL) 6 hours, n=4, FIG. 2
Description: as §2
In addition, 20 μL of the cell culture supernatant after the LPS treatment was subjected to detection of the inflammatory cytokine IL-1ß by the ELISA method using a mouse IL-1β ELISA kit (manufactured by R&D Systems; Catalog No. DY401-05).

IL-1β gene in BV2 cells = assay: LPS-induced IL-1β gene expression in BV2 cells (PCR); assay type: cell-based, mice; settings: 5 μg/mL, 16 hours pre-culture, LPS (1 μg/mL) 2 hours, vs. no addition, β-actin internal standard, FIG. 3
Description: Under conditions where sPIs or KIT-13 was present (5 μg/mL), or where neither sPIs nor KIT-13 was present, BV2 cells were cultured for 16 hours in DMEM medium supplemented with 2% fetal bovine serum (FBS). Thereafter, treatment with LPS (1 μg/mL) was carried out for 2 hours. Subsequently, cellular RNA was extracted using the TRIzol (trademark) reagent, and cDNA was prepared from the RNA using a PrimeScript (trademark) 1st strand cDNA Synthesis Kit (manufactured by Takara; 6110). Using TaKaRa Taq (trademark) (manufactured by Takara; R110A), the expression levels of the IL-1β gene and, as an internal standard, the β-actin gene were quantified by polymerase chain reaction (PCR).
The base sequences of the forward primer and the reverse primer for the IL-1ß gene are shown in SEQ ID NOs: 1 and 2, respectively. The base sequences of the forward primer and the reverse primer for the β-actin gene are shown in SEQ ID NOs: 3 and 4, respectively.

[4] = system: c57BL6J mice with LPS-induced memory impairment; assay: Water maze test in LPS-induced memory impairment model mice; assay type: in vivo; settings: 10 mg/50 kg/day in drinking water for 30 days plus 7 days LPS (250 mg/kg/day), sixth trial, P<0.01, n=5, FIG. 7
Description: The effect of KIT-13 on LPS-induced memory impairment in mice was studied. Eight-week-old male c57BL6J mice (5 individuals per group; n=5) were allowed to drink KIT-13 for 30 days at a dose of 10 mg/50 kg/day, and then LPS treatment (250 mg/kg/day) was carried out for 7 days while the mice were similarly allowed to drink KIT-13. Thereafter, a water maze test was carried out for 2 days (three trials per day).
The time required for the mice to reach an escape platform (arrival time) was as illustrated in FIG. 7. Intergroup comparison was carried out using the ANOVA test and the Bonferroni post-hoc test. […] Thus, KIT-13 is effective for improvement of the brain function (cognitive function).

## CCCCC/C=C\C/C=C\C/C=C\C/C=C\CCCC(=O)O[C@H](COCCCCCCCCCCCCCCCCCC)COP(=O)(O)OCCN [KIT-13]
MeCP2-deficient mice [1]
  RTT-like score: reduced the RTT-like score
[2]
  toxicity (concluded from body weight): non-toxic
[2]; weekly measurement, t-test, FIG. 6
  changes in the body weight vs control group: No statistical difference
MeCP2-deficient mice [3]; FIG. 4
  survival rate vs control group: higher survival rate than the control group
MeCP2-deficient mice [3]; n=14, control 64.5 days
  number of days required for the survival rate to decrease to 50%: 90 days
p65 (NFkB) in BV2 cells
  LPS-induced nuclear accumulation of p65: remarkably suppressed
IL-1β in BV2 cells
  LPS-induced expression of the inflammatory cytokine IL-1β (protein per 5000 cells): remarkably decreased
IL-1β gene in BV2 cells
  expression of the IL-1β gene: significantly suppressed
[4]
  memory (arrival time at escape platform) vs LPS group: showed improvement in the memory
